Assay results as given in a melting point compilation (Tetko et al.; mined from patent text by program, amines drawn as free bases though some values may be those of a salt).

Row | Compound | melting point
1 | CNc1ccc(C=CC(=O)c2ccc(NC)cc2)cc1 | 150 to 151 °C
2 | CCC1(CCCCCBr)C(=O)Nc2ccc(F)cc21 (stereo unspecified) | 82 to 83 °C
3 | CC(C)(C)C(Cl)=C(C#N)C#N | 52 to 53 °C
4 | CCOC(=O)Cn1c(=O)oc2c(O)cccc21 | 150 to 152 °C
5 | CCCCc1nc(SCC)c(CO)[nH]1 | 128 °C
6 | OCCCc1ccc(OCC2CCCO2)cc1Oc1ncc(C(F)(F)F)cc1Cl (stereo unspecified) | 91.3 to 93.6 °C
7 | CC1(C)NC(=O)N(Cc2ccccc2)C1=O | 101 to 104 °C
8 | CCOn1cnc2c(N)nc3ccccc3c21 | 179 to 181 °C
9 | O=C(O)c1cc(Cl)c(Cl)c(S(=O)(=O)Cl)c1 | 203 °C
10 | CCOC(=O)Cc1ccc(-c2ccc(F)cc2F)c(F)c1 | 50 to 52 °C
11 | CC=Cc1cccc2c(=O)c(C)c(-c3ccc(OC)cc3)oc12 | 169 to 171 °C
12 | COCCc1cc(N)n2nc(SC)c(S(=O)(=O)c3ccccc3)c2n1 | 186 to 187 °C
13 | O=C(NCCCc1ccncc1)N(CCC12CC3CC(CC(C3)C1)C2)C1CCCC1 | 136 to 138 °C
14 | c1ccc2[nH]c(Cc3ccncc3)nc2c1 | 185 to 186 °C
15 | C#Cc1c(-c2ccc(OC(F)F)c(OC3CC3)c2)[nH]c2cn[nH]c(=O)c12 | > 300 °C
16 | CC(C)(C)OC(=O)CN(CBr)C(=O)c1ccccc1 | 98 to 102 °C
17 | CC(C)(C)NC(=O)c1cccc(C(=O)O)c1O | 191 to 195 °C
18 | Fc1ccc(-c2cc3ccccc3n2-c2ccccc2)cc1 | 126 to 128 °C
19 | CC(C)n1nc(-c2cc(C#N)c(C(=O)O)nc2-c2ccccc2)ccc1=O | 196 to 198 °C
20 | O=C(NO)c1ccc2c(c1)CN(C(=O)OCc1cccnc1)C2 | 196 to 199 °C
21 | O=c1c2ccc3c(c2oc2cccc(F)c12)CC(CO)O3 (stereo unspecified) | 220 to 221 °C

Row | Compound | melting point
22 | COC(=O)C1CN(C(=O)c2cc(OC)c(OC)c(OC)c2)CCN1 (stereo unspecified) | 113 to 114 °C
23 | O=C(CCNC(=O)[C@H](Cc1ccc(-c2ccccc2)cc1)NCP(=O)(Oc1ccccc1)Oc1ccccc1)Oc1ccc2c(c1)CCC2 | 89 to 91 °C
24 | Cc1ccc(C(CC(=O)O)C(=O)O)s1 (stereo unspecified) | 186 to 188 °C
25 | CC(=O)Oc1c(CN(C)C)c2c(c3c1OC(C)(C)C3)C(c1ccccc1)=NC(C)(C)C2 | 125 to 126 °C
26 | FC(F)(F)c1cccc(Nc2ccccc2-c2n[nH]c(=S)o2)c1 | 211 to 213 °C
27 | Cc1c(C)c2c(c(C)c1O)C(c1ccc(N3CCOCC3)cc1)C(C)(C)O2 (stereo unspecified) | 91 to 93 °C
28 | O=c1[nH]c(=O)n(C2OC(CBr)C(O)C2O)cc1C=CBr (stereo unspecified) | 201 °C
29 | CC(C)C(c1cncnc1C(F)(F)F)N(C)C(=O)Cc1ccccn1 (stereo unspecified) | 99 to 100 °C
30 | O=C(C(=O)c1cccc(OCCCN2CCCC2)c1)c1cccc(OCCCN2CCCC2)c1 | 136 to 139 °C
31 | Cc1cnc(N2CCN(CC[C@H]3CC[C@H](NC(=O)CC4CCOCC4)CC3)CC2)c2c1OCC2 | 199 °C
32 | Cc1cnc(-c2c(F)cccc2F)nn1 | 90 to 93 °C
33 | CN(C(CCn1c(=O)cc(C(F)(F)F)[nH]c1=O)C(=O)NO)S(=O)(=O)c1ccc(Oc2ccncc2)cc1 (stereo unspecified) | 116 to 118 °C
34 | COC(=O)C1CC(O)CN1C(=O)c1ccc2c(c1)OCCO2 (stereo unspecified) | 185 °C
35 | Cc1cc(C(F)(F)C(F)(F)F)nc(N(C(N)=O)c2ccccc2[N+](=O)[O-])n1 | 156 °C
36 | Nc1ccc2ccccc2c1-c1c(P(c2ccccc2)c2ccccc2)ccc2ccccc12 | 105 °C
37 | Cc1sc2c(c1C)C(c1ccc(Cl)cc1)=NC(CC(=O)NCCN)c1nnc(C)n1-2 (stereo unspecified) | 142 to 146 °C
38 | CNC(=O)OC1Oc2ccc(OS(C)(=O)=O)cc2C1(C)C (stereo unspecified) | 126 to 127 °C
39 | COC(=O)c1c(Sc2ccc(Cl)cc2)c2cc(C)ccc2n1C | 110 to 111 °C
40 | O=C(Cn1nc(-c2ccccc2O)nc1-c1ccccc1O)NCCN1CCOCC1 | 180 to 182 °C
41 | COc1ccc2c(CCCC(=O)O)nnc(-c3nccs3)c2c1 | 218 to 220 °C
